From US7163589B2 (priority 2001, dated 2007) come the findings set out here.

This test relates to Mouse immunoglobulin (IgG).

Structures are written as SMILES.

For the compound `COC(F)(F)C(F)(F)C(F)(F)C(F)(F)F` [HFE-7100, methyl nonafluorobutyl ether], the “Effect on protein conformation (denaturation)” value is reported as “changes the conformation of the proteins”.
